In article PMC8580996, “2-Oxoglutarate derivatives can selectively enhance or inhibit the activity of human oxygenases” (Nature Communications, 2021):
“And” between values parts separate entries of the source, which are not always exact repeats. Equal entries are not always repeated.

How the values were obtained:
[1] = biological target: FIH (Homo sapiens, UniProt Q9NWT6); experiment: FIH steady-state kinetic parameters (SPE-MS, initial hydroxylation rates); type: biochemical; set-up: slope of initial reaction rate: unit not given here
Chain of FIH (Q9NWT6 whole entry): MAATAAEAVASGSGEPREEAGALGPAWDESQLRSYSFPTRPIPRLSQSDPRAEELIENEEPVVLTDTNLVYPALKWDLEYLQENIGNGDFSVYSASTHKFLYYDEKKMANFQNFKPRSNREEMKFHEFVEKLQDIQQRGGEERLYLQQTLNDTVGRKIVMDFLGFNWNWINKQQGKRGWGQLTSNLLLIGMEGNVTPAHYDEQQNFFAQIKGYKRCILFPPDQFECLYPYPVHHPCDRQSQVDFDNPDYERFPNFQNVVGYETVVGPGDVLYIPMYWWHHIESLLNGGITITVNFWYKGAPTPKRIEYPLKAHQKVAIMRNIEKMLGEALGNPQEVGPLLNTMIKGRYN
Procedure, shortened: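 FIH-catalysed CA1-20 peptide hydroxylation with varied 2OG or 2OG derivative, 20 μM ammonium iron(II) sulfate plus L-ascorbic acid, in 50 mM Tris, 50 mM NaCl, pH 7.5, 20 °C, monitored by SPE-MS (~1 sample/40 s). Initial rates fitted to Michaelis–Menten for vapp and Kapp; independent triplicates.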

[2] = biological target: T1, AspH (Homo sapiens, UniProt Q12797); set-up: method as in PMID 34163896; conditions: hFX-CP101–119 substrate, 330 μM 2OG or 2OG derivative, t = 15 min; cited from earlier work
T1 construct: the tetratricopeptide repeat domain (His6-AspH315-758), was produced and purified as previously reported; made in house
T1 sequence (Q12797 315-758): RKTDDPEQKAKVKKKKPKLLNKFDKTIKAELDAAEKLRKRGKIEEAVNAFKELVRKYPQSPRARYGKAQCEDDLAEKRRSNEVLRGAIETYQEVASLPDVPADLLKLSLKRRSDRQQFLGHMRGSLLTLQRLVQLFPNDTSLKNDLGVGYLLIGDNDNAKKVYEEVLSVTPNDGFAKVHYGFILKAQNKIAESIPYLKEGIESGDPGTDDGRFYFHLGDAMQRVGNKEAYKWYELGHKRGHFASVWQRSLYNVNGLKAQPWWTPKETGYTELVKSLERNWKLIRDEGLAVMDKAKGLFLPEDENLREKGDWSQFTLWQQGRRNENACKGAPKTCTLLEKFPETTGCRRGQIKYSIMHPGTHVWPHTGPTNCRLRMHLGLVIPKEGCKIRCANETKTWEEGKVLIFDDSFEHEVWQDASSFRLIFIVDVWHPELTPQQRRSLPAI

Question: What does the source list for `O=C(O)C(=O)C1CCC(C(=O)O)C1` (centres unmarked) [compound 22, 3-(carboxycarbonyl)cyclopentane-1-carboxylic acid]?
Answer: SPE-MS determined concentration of hydroxylated HIF-1a peptide ([1]; 4 uM compound 22, time 2.098 min): 0.04779 µM and 0.05783 µM and 0.03772 µM; SPE-MS determined concentration of hydroxylated HIF-1a peptide ([1]; 4 uM compound 22, time 2.797 min): 0.05438 µM and 0.0588 µM and 0.03391 µM; SPE-MS determined concentration of hydroxylated HIF-1a peptide ([1]; 4 uM compound 22 as cosubstrate, time 3.49667 min, replicates 1-3): 0.05919 µM and 0.07205 µM and 0.04053 µM; SPE-MS determined concentration of hydroxylated HIF-1a peptide ([1]; 8 uM compound 22, time 0.699833 min): 0.02809 µM and 0.04706 µM and 0.04281 µM; SPE-MS determined concentration of hydroxylated HIF-1a peptide ([1]; 8 uM compound 22, time 2.098 min): 0.0572 µM and 0.06337 µM and 0.07945 µM; SPE-MS determined concentration of hydroxylated HIF-1a peptide ([1]; 8 uM compound 22, time 2.797 min): 0.05834 µM and 0.07508 µM and 0.08857 µM; SPE-MS determined concentration of hydroxylated HIF-1a peptide ([1]; 8 uM compound 22 as cosubstrate, time 3.49667 min, replicates 1-3): 0.08563 µM and 0.07413 µM and 0.09575 µM; SPE-MS determined concentration of hydroxylated HIF-1a peptide ([1]; 8 uM compound 22 as cosubstrate, time 4.19733 min, replicates 1-3): 0.0782 µM; SPE-MS determined concentration of hydroxylated HIF-1a peptide ([1]; 16 uM compound 22, time 0.699833 min): 0.06076 µM and 0.05382 µM and 0.0426 µM; SPE-MS determined concentration of hydroxylated HIF-1a peptide ([1]; 16 uM compound 22, time 2.098 min): 0.08485 µM and 0.09545 µM and 0.07537 µM; SPE-MS determined concentration of hydroxylated HIF-1a peptide ([1]; 16 uM compound 22, time 2.797 min): 0.09668 µM and 0.1092 µM and 0.09109 µM; SPE-MS determined concentration of hydroxylated HIF-1a peptide ([1]; 16 uM compound 22 as cosubstrate, time 3.49667 min, replicates 1-3): 0.105 µM and 0.1268 µM and 0.09176 µM; SPE-MS determined concentration of hydroxylated HIF-1a peptide ([1]; 32 uM compound 22, time 0.699833 min): 0.06848 µM and 0.06274 µM and 0.0479 µM; SPE-MS determined concentration of hydroxylated HIF-1a peptide ([1]; 32 uM compound 22, time 2.098 min): 0.1104 µM and 0.1151 µM and 0.1012 µM; SPE-MS determined concentration of hydroxylated HIF-1a peptide ([1]; 32 uM compound 22, time 2.797 min): 0.1309 µM and 0.1405 µM and 0.1242 µM; SPE-MS determined concentration of hydroxylated HIF-1a peptide ([1]; 32 uM compound 22 as cosubstrate, time 3.49667 min, replicates 1-3): 0.1431 µM and 0.1593 µM and 0.14 µM; SPE-MS determined concentration of hydroxylated HIF-1a peptide ([1]; 64 uM compound 22, time 0 min): 0.02766 µM and 0.02 µM and 0.02798 µM; SPE-MS determined concentration of hydroxylated HIF-1a peptide ([1]; 64 uM compound 22, time 0.699833 min): 0.06638 µM and 0.06107 µM and 0.07538 µM; SPE-MS determined concentration of hydroxylated HIF-1a peptide ([1]; 64 uM compound 22, time 2.098 min): 0.1181 µM and 0.1293 µM and 0.1259 µM; SPE-MS determined concentration of hydroxylated HIF-1a peptide ([1]; 64 uM compound 22, time 2.797 min): 0.146 µM and 0.1627 µM and 0.1536 µM; SPE-MS determined concentration of hydroxylated HIF-1a peptide ([1]; 64 uM compound 22 as cosubstrate, time 3.49667 min, replicates 1-3): 0.169 µM and 0.1906 µM and 0.171 µM; SPE-MS determined concentration of hydroxylated HIF-1a peptide ([1]; 128 uM compound 22, time 0.699833 min): 0.06651 µM and 0.09916 µM and 0.08534 µM; SPE-MS determined concentration of hydroxylated HIF-1a peptide ([1]; 128 uM compound 22, time 2.098 min): 0.1375 µM and 0.1676 µM and 0.1537 µM; SPE-MS determined concentration of hydroxylated HIF-1a peptide ([1]; 128 uM compound 22, time 2.797 min): 0.162 µM and 0.1955 µM and 0.1789 µM; SPE-MS determined concentration of hydroxylated HIF-1a peptide ([1]; 128 uM compound 22 as cosubstrate, time 3.49667 min, replicates 1-3): 0.1878 µM and 0.2084 µM and 0.2042 µM; SPE-MS determined concentration of hydroxylated HIF-1a peptide ([1]; 256 uM compound 22, time 0 min): 0.05949 µM and 0.04197 µM; SPE-MS determined concentration of hydroxylated HIF-1a peptide ([1]; 256 uM compound 22, time 0.699833 min): 0.1 µM and 0.09439 µM; SPE-MS determined concentration of hydroxylated HIF-1a peptide ([1]; 256 uM compound 22, time 2.098 min): 0.1712 µM and 0.1647 µM; SPE-MS determined concentration of hydroxylated HIF-1a peptide ([1]; 256 uM compound 22, time 2.797 min): 0.1988 µM and 0.1857 µM; SPE-MS determined concentration of hydroxylated HIF-1a peptide ([1]; 256 uM compound 22 as cosubstrate, time 3.49667 min, replicates 2-3 (replicate 1 empty)): 0.2377 µM and 0.2176 µM; slope of initial reaction rate ([1]; CA1-20, 16 μM 22): 0.001019 and 0.001398 and 0.001783; slope of initial reaction rate ([1]; CA1-20, 32 μM 22): 0.002274 and 0.002243 and 0.002771; slope of initial reaction rate ([1]; CA1-20, 64 μM 22): 0.003753 and 0.003305 and 0.003867; slope of initial reaction rate ([1]; CA1-20, 128 μM 22): 0.0046 and 0.003872 and 0.004223; slope of initial reaction rate ([1]; CA1-20, 256 μM 22): 0.004108 and 0.004197 and 0.004611; FIH Kmapp ([1]; CA1–20 substrate): 39 µM; slope of initial reaction rate ([1]; HIF-1a788-822, 8 μM 22): 0.000249 and 0.000403 and 0.000322; slope of initial reaction rate ([1]; HIF-1a788-822, 16 μM 22): 0.000332 and 0.000535 and 0.000447; slope of initial reaction rate ([1]; HIF-1a788-822, 32 μM 22): 0.000561 and 0.000718 and 0.000685; slope of initial reaction rate ([1]; HIF-1a788-822, 64 μM 22): 0.000686 and 0.000843 and 0.000711; slope of initial reaction rate ([1]; HIF-1a788-822, 128 μM 22): 0.000874 and 0.000824 and 0.000795; slope of initial reaction rate ([1]; HIF-1a788-822, 256 μM 22): 0.000833 and 0.000843; FIH Kmapp ([1]; HIF-1α788–822 substrate): 15 µM; AspH activity, %-substrate conversion [2]: ~15%
